The values that follow come from ChEMBL document CHEMBL1155682, “Cernuosides A and B, two sucrase inhibitors from Pulsatilla cernua” (J Nat Prod, 2000).

As usually defined, the pIC50 is the IC50 on a negative log10 scale, so that one unit is a factor of ten. Higher therefore signals a low IC50.

The target in this assay is Sucrase-isomaltase, intestinal (Rattus norvegicus, UniProt P23739). In words: Inhibition of rat intestinal sucrase.

pIC50: −log10 of the molar value.

Sequence of Sucrase-isomaltase, intestinal (P23739 1-1013 limits assumed): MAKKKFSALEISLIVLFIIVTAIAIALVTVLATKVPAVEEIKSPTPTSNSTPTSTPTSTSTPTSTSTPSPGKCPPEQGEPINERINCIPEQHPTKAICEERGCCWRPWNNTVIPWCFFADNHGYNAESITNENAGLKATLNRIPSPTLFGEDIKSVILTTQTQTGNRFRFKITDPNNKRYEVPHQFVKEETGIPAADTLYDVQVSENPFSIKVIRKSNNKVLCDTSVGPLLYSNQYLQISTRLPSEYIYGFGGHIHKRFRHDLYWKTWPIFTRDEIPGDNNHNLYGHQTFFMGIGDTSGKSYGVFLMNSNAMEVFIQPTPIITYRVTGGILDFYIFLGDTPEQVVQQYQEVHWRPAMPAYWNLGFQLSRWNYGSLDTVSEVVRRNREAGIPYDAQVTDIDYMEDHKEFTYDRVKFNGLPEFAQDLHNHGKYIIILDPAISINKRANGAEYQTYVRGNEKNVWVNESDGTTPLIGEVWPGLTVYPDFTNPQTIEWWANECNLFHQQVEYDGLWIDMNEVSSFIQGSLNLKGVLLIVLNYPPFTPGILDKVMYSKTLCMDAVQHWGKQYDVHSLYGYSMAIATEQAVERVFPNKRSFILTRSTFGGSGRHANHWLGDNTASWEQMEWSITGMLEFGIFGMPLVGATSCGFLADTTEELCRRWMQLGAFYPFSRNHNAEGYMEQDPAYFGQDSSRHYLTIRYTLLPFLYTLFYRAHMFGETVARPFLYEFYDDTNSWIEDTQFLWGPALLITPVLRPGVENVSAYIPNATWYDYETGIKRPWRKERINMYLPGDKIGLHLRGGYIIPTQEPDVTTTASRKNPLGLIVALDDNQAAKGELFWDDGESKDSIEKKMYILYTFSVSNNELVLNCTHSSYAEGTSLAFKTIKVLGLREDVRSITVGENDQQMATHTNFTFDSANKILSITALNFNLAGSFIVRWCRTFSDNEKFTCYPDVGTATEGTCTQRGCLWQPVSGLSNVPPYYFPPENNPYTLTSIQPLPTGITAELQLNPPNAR
Sequence of Sucrase-isomaltase, intestinal (P23739 1014-1841 limits assumed): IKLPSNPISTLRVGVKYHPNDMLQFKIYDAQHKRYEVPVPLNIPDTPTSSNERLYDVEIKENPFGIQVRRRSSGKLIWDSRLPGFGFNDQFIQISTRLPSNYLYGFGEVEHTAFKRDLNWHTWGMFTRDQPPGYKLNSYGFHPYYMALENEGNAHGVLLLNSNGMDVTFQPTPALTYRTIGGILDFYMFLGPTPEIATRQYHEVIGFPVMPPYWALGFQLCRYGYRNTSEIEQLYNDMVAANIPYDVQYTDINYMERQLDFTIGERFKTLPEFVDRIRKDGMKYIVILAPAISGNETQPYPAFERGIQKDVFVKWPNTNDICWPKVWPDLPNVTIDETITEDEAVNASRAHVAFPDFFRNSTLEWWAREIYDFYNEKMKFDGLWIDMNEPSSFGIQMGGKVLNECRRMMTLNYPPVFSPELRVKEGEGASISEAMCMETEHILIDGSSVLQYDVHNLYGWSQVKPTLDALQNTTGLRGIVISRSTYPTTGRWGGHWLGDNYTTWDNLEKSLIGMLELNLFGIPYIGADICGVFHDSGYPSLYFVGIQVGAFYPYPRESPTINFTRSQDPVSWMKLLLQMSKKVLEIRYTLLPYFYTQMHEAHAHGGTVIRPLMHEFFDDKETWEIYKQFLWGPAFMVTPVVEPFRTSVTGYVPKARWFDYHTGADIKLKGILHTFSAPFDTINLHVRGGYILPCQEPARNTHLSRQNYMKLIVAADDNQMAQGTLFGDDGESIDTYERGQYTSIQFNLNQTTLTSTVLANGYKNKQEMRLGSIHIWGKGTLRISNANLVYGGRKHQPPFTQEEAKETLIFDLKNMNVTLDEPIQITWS

`C[C@@H]1O[C@@H](O[C@H]2[C@H](O)[C@@H](O)[C@H](OC[C@H]3O[C@@H](OC(=O)[C@]45CCC(C)(C)C[C@H]4C4=CC[C@@H]6[C@@]7(C)CC[C@H](O[C@@H]8OC[C@H](O[C@@H]9O[C@H](CO)[C@@H](O)[C@H](O)[C@H]9O)[C@H](O)[C@H]8O[C@@H]8O[C@@H](C)[C@H](O)[C@@H](O[C@@H]9O[C@H](CO)[C@@H](O)[C@H](O)[C@H]9O)[C@H]8O)C(C)(C)[C@@H]7CC[C@@]6(C)[C@]4(C)CC5)[C@H](O)[C@@H](O)[C@@H]3O)O[C@@H]2CO)[C@H](O)[C@H](O)[C@H]1O` [CERNUOSIDE A] showed a pIC50 of 4.23. Then `C[C@@H]1O[C@@H](O[C@H]2[C@H](O)[C@@H](O)[C@H](OC[C@H]3O[C@@H](OC(=O)[C@]45CCC(C)(C)C[C@H]4C4=CC[C@@H]6[C@@]7(C)CC[C@H](O[C@@H]8OC[C@H](O[C@@H]9O[C@H](CO)[C@@H](O)[C@H](O)[C@H]9O)[C@H](O)[C@H]8O[C@@H]8O[C@@H](C)[C@H](O)[C@@H](O[C@@H]9O[C@H](CO)[C@@H](O)[C@H](O)[C@H]9O)[C@H]8O)[C@@](C)(CO)[C@@H]7CC[C@@]6(C)[C@]4(C)CC5)[C@H](O)[C@@H](O)[C@@H]3O)O[C@@H]2CO)[C@H](O)[C@H](O)[C@H]1O` [CERNUOSIDE B], with 4.34.
